Key:
Assay in all cases: Sensitivity of multiple myeloma cell line to CHIR-258 treatment
Assay type in all cases: cell-based, human
[1] = test system: KMS18; details: KMS18: Ras WT, FGFR3G384D mutant
[2] = test system: UTMC2; details: UTMC2: Ras WT, FGFR3WT
[3] = test system: H929; details: H929: N13 Ras mutant, FGFR3 wild-type (WT)
[4] = test system: KMS11; details: KMS11: Ras WT, FGFR3Y373C mutant
[5] = test system: U266; details: U266: Ras WT, FGFR3 negative

CN1CCN(c2ccc3nc(-c4c(N)c5c(F)cccc5[nH]c4=O)[nH]c3c2)CC1 [CHIR-258, 4-Amino-5-fluoro-3-[6-(4-methylpiperazin-1-yl)-1H-benzimidazol-2-yl]quinolin-2(1H)-one]
sensitivity of cell line to treatment [1]: sensitive | sensitivity of cell line to treatment [2]: resistant | sensitivity of cell line to treatment [3]: resistant | sensitivity of cell line to treatment [4]: sensitive | sensitivity of cell line to treatment [5]: resistant

Reference: US8158360B2, “Effects of inhibitors of FGFR3 on gene transcription” (priority 2005, dated 2012)
